From ChEMBL document CHEMBL3885881, “DrugMatrix”

Species: Rattus norvegicus
Assay: DrugMatrix - Regimen: Daily Repeat
Format: toxicity, organism-based, Sprague-Dawley
Parameters: regimen Daily Repeat, gender Male, age 6-8 weeks
Settings: in vivo, po, 72 h, route oral GAVAGE, time 3 day, vehicle .5 % CMC; for ABSOLUTE BASOPHIL / ABSOLUTE EOSINOPHIL / ABSOLUTE LYMPHOCYTE / ABSOLUTE MONOCYTE / ABSOLUTE SEGMENTED NEUTROPHIL / BASOPHIL / EOSINOPHIL / ERYTHROCYTE COUNT / HEMATOCRIT / HEMOGLOBIN / LEUKOCYTE COUNT / LYMPHOCYTE / MEAN CORPUSCULAR HEMOGLOBIN / MEAN CORPUSCULAR HEMOGLOBIN CONCENTRATION / MONOCYTE / NUCLEATED RED BLOOD CELLS / PLATELET COUNT / NEUTROPHIL: tissue Blood
[1] = 0 mg/kg, tissue Plasma, dose level Control
[2] = 33 mg/kg, tissue Plasma, dose level High
[3] = […], dose 3.3 mg/Kg, dose level Low
[4] = […], tissue Plasma, dose 3.3 mg/Kg, dose level Low

**Q.** AURANOFIN was tested. Which “ABSOLUTE BASOPHIL” value (0 mg/kg, dose level Control) did it give?
**A.** 0 CELLS/uL

**Q.** What about the “ABSOLUTE EOSINOPHIL” value (0 mg/kg, dose level Control) of the same sequence?
**A.** 8.83 CELLS/uL

**Q.** What about the “ABSOLUTE LYMPHOCYTE” value (0 mg/kg, dose level Control) of the same sequence?
**A.** 7222.33 CELLS/uL

**Q.** What about the “ABSOLUTE MONOCYTE” value (0 mg/kg, dose level Control) of the same sequence?
**A.** 0 CELLS/uL

**Q.** And the “ABSOLUTE SEGMENTED NEUTROPHIL” value (0 mg/kg, dose level Control)?
**A.** 752.17 CELLS/uL

**Q.** What about the BASOPHIL (0 mg/kg, dose level Control) of the same sequence?
**A.** 0%

**Q.** What about the EOSINOPHIL (0 mg/kg, dose level Control) of the same sequence?
**A.** 0.17%

**Q.** And the “ERYTHROCYTE COUNT” value (0 mg/kg, dose level Control)?
**A.** 5.22 x10E6/uL

**Q.** And the HEMATOCRIT (0 mg/kg, dose level Control)?
**A.** 32.6%

**Q.** What about the HEMOGLOBIN (0 mg/kg, dose level Control) of the same sequence?
**A.** 12.43 G/DL

**Q.** What about the “LEUKOCYTE COUNT” value (0 mg/kg, dose level Control) of the same sequence?
**A.** 7.98 x10E3/uL

**Q.** And the LYMPHOCYTE (0 mg/kg, dose level Control)?
**A.** 91.17%

**Q.** What about the “MEAN CORPUSCULAR HEMOGLOBIN” value (0 mg/kg, dose level Control) of the same sequence?
**A.** 23.87 pg

**Q.** What about the “MEAN CORPUSCULAR HEMOGLOBIN CONCENTRATION” value (0 mg/kg, dose level Control) of the same sequence?
**A.** 38.18 G/DL

**Q.** What about the MONOCYTE (0 mg/kg, dose level Control) of the same sequence?
**A.** 0%

**Q.** What about the “NUCLEATED RED BLOOD CELLS” value (0 mg/kg, dose level Control) of the same sequence?
**A.** 0 /100WBC

**Q.** What about the “PLATELET COUNT” value (0 mg/kg, dose level Control) of the same sequence?
**A.** 1082.33 x10E3/uL

**Q.** And the “ALANINE AMINOTRANSFERASE” value [1]?
**A.** 42.17 u/L

**Q.** And the “ALKALINE PHOSPHATASE” value [1]?
**A.** 451.17 u/L

**Q.** What about the “ASPARTATE AMINOTRANSFERASE” value [1] of the same sequence?
**A.** 76.17 u/L

**Q.** What about the “BLOOD UREA NITROGEN” value [1] of the same sequence?
**A.** 13.33 mg/dL

**Q.** And the “CARBON DIOXIDE” value [1]?
**A.** 31.67 mmol/L

**Q.** And the CHLORIDE [1]?
**A.** 96.5 MEQ/L

**Q.** What about the CHOLESTEROL [1] of the same sequence?
**A.** 78 mg/dL

**Q.** What about the “CREATINE PHOSPHOKINASE” value [1] of the same sequence?
**A.** 216.5 u/L

**Q.** And the CREATININE [1]?
**A.** 0.22 mg/dL

**Q.** What about the GLUCOSE [1] of the same sequence?
**A.** 137 mg/dL

**Q.** What about the “LACTATE DEHYDROGENASE” value [1] of the same sequence?
**A.** 138.5 u/L

**Q.** And the PHOSPHORUS [1]?
**A.** 12.68 mg/dL

**Q.** What about the POTASSIUM [1] of the same sequence?
**A.** 6.23 MEQ/L

**Q.** And the “TOTAL BILIRUBIN” value [1]?
**A.** 0.15 mg/dL

**Q.** What about the “TOTAL PROTEIN” value [1] of the same sequence?
**A.** 6.33 G/DL

**Q.** What about the “URIC ACID” value [1] of the same sequence?
**A.** 1.1 mg/dL

**Q.** And the “ABSOLUTE BASOPHIL” value (33 mg/kg, dose level High)?
**A.** 0 CELLS/uL

**Q.** What about the “ABSOLUTE EOSINOPHIL” value (33 mg/kg, dose level High) of the same sequence?
**A.** 19 CELLS/uL

**Q.** And the “ABSOLUTE LYMPHOCYTE” value (33 mg/kg, dose level High)?
**A.** 6925.33 CELLS/uL

**Q.** And the “ABSOLUTE MONOCYTE” value (33 mg/kg, dose level High)?
**A.** 0 CELLS/uL

**Q.** What about the “ABSOLUTE SEGMENTED NEUTROPHIL” value (33 mg/kg, dose level High) of the same sequence?
**A.** 722.33 CELLS/uL

**Q.** What about the BASOPHIL (33 mg/kg, dose level High) of the same sequence?
**A.** 0%

**Q.** And the EOSINOPHIL (33 mg/kg, dose level High)?
**A.** 0.33%

**Q.** What about the “ERYTHROCYTE COUNT” value (33 mg/kg, dose level High) of the same sequence?
**A.** 5.07 x10E6/uL

**Q.** And the HEMATOCRIT (33 mg/kg, dose level High)?
**A.** 31.53%

**Q.** What about the HEMOGLOBIN (33 mg/kg, dose level High) of the same sequence?
**A.** 12.07 G/DL

**Q.** What about the “LEUKOCYTE COUNT” value (33 mg/kg, dose level High) of the same sequence?
**A.** 7.67 x10E3/uL

**Q.** What about the LYMPHOCYTE (33 mg/kg, dose level High) of the same sequence?
**A.** 90.67%

**Q.** And the “MEAN CORPUSCULAR HEMOGLOBIN” value (33 mg/kg, dose level High)?
**A.** 23.77 pg

**Q.** And the “MEAN CORPUSCULAR HEMOGLOBIN CONCENTRATION” value (33 mg/kg, dose level High)?
**A.** 38.27 G/DL

**Q.** And the MONOCYTE (33 mg/kg, dose level High)?
**A.** 0%

**Q.** And the NEUTROPHIL (33 mg/kg, dose level High)?
**A.** 9%

**Q.** And the “NUCLEATED RED BLOOD CELLS” value (33 mg/kg, dose level High)?
**A.** 0 /100WBC

**Q.** And the “PLATELET COUNT” value (33 mg/kg, dose level High)?
**A.** 1030 x10E3/uL

**Q.** What about the “ALANINE AMINOTRANSFERASE” value [2] of the same sequence?
**A.** 55.67 u/L

**Q.** And the ALBUMIN [2]?
**A.** 3.8 G/DL

**Q.** What about the “ALKALINE PHOSPHATASE” value [2] of the same sequence?
**A.** 342.67 u/L

**Q.** And the “ASPARTATE AMINOTRANSFERASE” value [2]?
**A.** 80.33 u/L

**Q.** What about the “BLOOD UREA NITROGEN” value [2] of the same sequence?
**A.** 13.33 mg/dL

**Q.** And the “CARBON DIOXIDE” value [2]?
**A.** 31.67 mmol/L

**Q.** And the CHOLESTEROL [2]?
**A.** 93.33 mg/dL

**Q.** And the “CREATINE PHOSPHOKINASE” value [2]?
**A.** 251.67 u/L

**Q.** What about the CREATININE [2] of the same sequence?
**A.** 0.18 mg/dL

**Q.** What about the GLUCOSE [2] of the same sequence?
**A.** 139 mg/dL

**Q.** And the “LACTATE DEHYDROGENASE” value [2]?
**A.** 122 u/L

**Q.** What about the SODIUM [2] of the same sequence?
**A.** 153.7 MEQ/L

**Q.** What about the “TOTAL BILIRUBIN” value [2] of the same sequence?
**A.** 0.2 mg/dL

**Q.** And the “TOTAL PROTEIN” value [2]?
**A.** 5.87 G/DL

**Q.** And the “URIC ACID” value [2]?
**A.** 1.13 mg/dL

**Q.** And the “ABSOLUTE BASOPHIL” value [3]?
**A.** 0 CELLS/uL

**Q.** What about the “ABSOLUTE EOSINOPHIL” value [3] of the same sequence?
**A.** 46.33 CELLS/uL

**Q.** What about the “ABSOLUTE LYMPHOCYTE” value [3] of the same sequence?
**A.** 6434 CELLS/uL

**Q.** And the “ABSOLUTE MONOCYTE” value [3]?
**A.** 30 CELLS/uL

**Q.** And the “ABSOLUTE SEGMENTED NEUTROPHIL” value [3]?
**A.** 1123 CELLS/uL

**Q.** And the BASOPHIL [3]?
**A.** 0%

**Q.** What about the EOSINOPHIL [3] of the same sequence?
**A.** 0.67%

**Q.** What about the “ERYTHROCYTE COUNT” value [3] of the same sequence?
**A.** 5.02 x10E6/uL

**Q.** And the HEMATOCRIT [3]?
**A.** 31.27%

**Q.** And the HEMOGLOBIN [3]?
**A.** 11.83 G/DL

**Q.** And the “LEUKOCYTE COUNT” value [3]?
**A.** 7.63 x10E3/uL

**Q.** And the LYMPHOCYTE [3]?
**A.** 84.33%

**Q.** What about the “MEAN CORPUSCULAR HEMOGLOBIN” value [3] of the same sequence?
**A.** 23.57 pg

**Q.** What about the “MEAN CORPUSCULAR HEMOGLOBIN CONCENTRATION” value [3] of the same sequence?
**A.** 37.83 G/DL

**Q.** And the MONOCYTE [3]?
**A.** 0.33%

**Q.** And the NEUTROPHIL [3]?
**A.** 14.67%

**Q.** And the “NUCLEATED RED BLOOD CELLS” value [3]?
**A.** 0.33 /100WBC

**Q.** And the “PLATELET COUNT” value [3]?
**A.** 1052.33 x10E3/uL

**Q.** What about the “ALANINE AMINOTRANSFERASE” value [4] of the same sequence?
**A.** 42.33 u/L

**Q.** What about the ALBUMIN [4] of the same sequence?
**A.** 4.1 G/DL

**Q.** What about the “ALKALINE PHOSPHATASE” value [4] of the same sequence?
**A.** 371 u/L

**Q.** And the “ASPARTATE AMINOTRANSFERASE” value [4]?
**A.** 73 u/L

**Q.** And the “BLOOD UREA NITROGEN” value [4]?
**A.** 13 mg/dL

**Q.** And the “CARBON DIOXIDE” value [4]?
**A.** 33 mmol/L

**Q.** And the CHLORIDE [4]?
**A.** 97 MEQ/L

**Q.** What about the CHOLESTEROL [4] of the same sequence?
**A.** 76.67 mg/dL

**Q.** And the “CREATINE PHOSPHOKINASE” value [4]?
**A.** 140 u/L

**Q.** What about the CREATININE [4] of the same sequence?
**A.** 0.18 mg/dL

**Q.** And the GLUCOSE [4]?
**A.** 143 mg/dL

**Q.** And the “LACTATE DEHYDROGENASE” value [4]?
**A.** 96 u/L

**Q.** What about the LIPASE [4] of the same sequence?
**A.** 8.33 u/L

**Q.** And the POTASSIUM [4]?
**A.** 6.12 MEQ/L

**Q.** What about the SODIUM [4] of the same sequence?
**A.** 145.6 MEQ/L

**Q.** And the “TOTAL BILIRUBIN” value [4]?
**A.** 0.17 mg/dL

**Q.** And the “TOTAL PROTEIN” value [4]?
**A.** 6.17 G/DL

**Q.** What about the “URIC ACID” value [4] of the same sequence?
**A.** 1 mg/dL
